A value given as a limit tells only on which side of the number the result lay.

Regarding `COc1ccc([N+](=O)[O-])cc1NN=C1C(=O)C(C(=O)Nc2cccc([N+](=O)[O-])c2)=Cc2ccccc21`, the melting point (in general, the temperature of the solid-liquid transition) came out at 335 °C. The compound `COc1cc2cc[nH]c2cc1OC` yielded a melting point of 157 °C. In the case of `Nc1ccccc1-c1cccnc1`, the melting point came to 72 °C.

The compound `COC(=O)c1ccc2cc(OC)ccc2c1` registered a melting point of 130 °C.

`Cc1nc([N+](=O)[O-])cn1-c1ccc([N+](=O)[O-])cc1`: the melting point was 186 °C. Take `Clc1cc2oc3ccc(Cl)c(Cl)c3c2cc1Cl`: the melting point was 210 °C. In turn, `CC(=O)c1ccc(Cl)c([N+](=O)[O-])c1` had a melting point of 98 °C. For `N#Cc1cc2cc3c4c(c2oc1=O)CCCN4CCC3` the value was 250 °C; for `CSc1nc(N)ns1`, 156 to 158 °C; for `OC(C1CCCCC1)(C1CCCCC1)C1CCCCC1`, 94 to 96 °C.

As for `C=C(NC(C)=O)C(=O)OC`, the melting point stood at 50 °C. `Cc1ccc(N)c([N+](=O)[O-])c1` returned a melting point of 116 °C. As for `CC(C)(C)NC(=O)C1CCC2C3CCC4NC(=O)C=CC4(C)C3CCC12C` (centres undefined), the melting point was determined as 253 °C. The compound `CC(=O)Nc1ccccc1-c1cc2ccccc2[nH]1` came in with a melting point of 151 to 152 °C. The value for `Cc1nc(-c2cccc(CBr)c2)no1` was 71 to 72 °C. `OCc1cn2ccsc2n1` had a melting point of 154 to 155 °C. Take `ClC1=C(Cl)C2(Cl)C3C4OC4C(Cl)C3C1(Cl)C2(Cl)Cl` (centres undefined): the melting point amounted to 160 °C.

As to `CCOC(=O)Nc1ccccc1`, the melting point was in the range of 47 to 51 °C. The value for `O=C(O)c1ccc(=O)oc1` was 203 to 205 °C. `CCc1nc(N)nc(Cl)c1C` showed a melting point of 138 to 140 °C. Regarding `Cc1nc2ccccc2nc1-c1cc(-c2nc3ccccc3nc2C)c([N+](=O)[O-])cc1[N+](=O)[O-]`, the melting point turned out to be 239 °C. Compound `CO[Si](OC)(OC)c1ccccc1` displayed a melting point of -25 °C. The compound `CC(=O)C1=Cc2ccccc2C1` registered a melting point of 122 °C. As to `Cc1ccc(Cl)c(CO)c1F`, the melting point was determined as 57 °C.

Consider `CC(=O)Nc1ccc(C(F)(F)F)cc1Cl`, for which the melting point turned out to be 136 °C. Take `COc1ccccc1NC(=O)C(C(F)(F)F)C(F)(F)F`: the melting point came out at 163 °C. For `C#CCCCCCCCCC(=O)O` the value was 42 °C; for `O=C(CCCNC(=O)CCCCC(=O)NCCCC(=O)NO)NO`, 163 °C; for `C=CCOc1ccc2c(=O)cc(C(=O)OCC)oc2c1CCC`, 84 to 86 °C.

Compound `Cn1c(CO)cc2occc21` displayed a melting point of 74 to 76 °C. `C1COCCOCCOCCOCCOCCO1` gave a melting point of 39 °C. Compound `CC1(C)CNC(=NN=C(C=Cc2ccc(C(F)(F)F)cc2)C=Cc2ccc(C(F)(F)F)cc2)NC1` showed a melting point of 188 °C. In the case of `COc1ccc(C(O)(c2ccccc2OC)c2ccc(OC)cc2OC)c(OC)c1`, the melting point worked out at 137 °C. `COC(=O)c1ccc(CCl)o1` registered a melting point of 32 to 36 °C. In turn, `CCOP(=S)(OCC)Oc1nc(Cl)n(C(C)C)n1` had a melting point below 25 °C. Compound `Nc1cc(C(F)(F)F)c(F)cc1Br` had a melting point of 27 °C. `CC(C)(C)C(=O)C(C)(C)C` showed a melting point of -25.2 °C. Take `O=C1OC(=O)c2ncccc21`: the melting point was 134 to 138 °C. For `CC(C)N1CSc2nnc(-c3ccccc3)n2C1` the value was 225 to 226 °C; for `O=C(OCc1ccccc1)c1cnc(Cl)nc1C(F)(F)F`, 45 to 47 °C. Compound `COc1cc(C(=O)NS(=O)(=O)c2ccccc2C)ccc1Cc1cn(C)c2ccc(NC(=O)OC3CCCC3)cc12` displayed a melting point of 138 °C. For `CC(=O)c1csc2ccccc12` the value was 64 °C.

`O=C(NO)OCc1ccccc1` had a melting point of 68 °C.

`COC(=O)c1ccc(-c2cccs2)nc1` gave a melting point of 117 to 118 °C. Compound `O=CN(O)CC(=O)O` yielded a melting point of 120 °C. `Cc1c(C)c2c(c3c1C(=O)C3)CC2=O` gave a melting point of 207 °C. The compound `Brc1ccc(-c2c(Br)c(Br)c(Br)c(Br)c2Br)c(Br)c1Br` gave a melting point of 225 °C.

Compound `COc1c(F)c(F)cc(C(=O)O)c1F` registered a melting point of 115 °C. For the compound `O=C(O)c1ccccc1/N=N/C1SC(=S)N(c2ccccc2)C1=O` (centres undefined), the melting point was 199 °C. The value for `NS(=O)(=O)c1cc2c(s1)C(O)CCS2` (centres undefined) was 158 °C; that for `CNCc1ccccc1Cn1cncn1` was 57 to 59 °C; that for `CC(C)(C)OC(=O)N1CCN(C(=O)OCC2c3ccccc3-c3ccccc32)CC1C(=O)O` (centres undefined) was 156 to 158 °C.

For `Cn1cnc(C=O)c1`, the melting point was 68 to 69 °C.

Compound `CC(C)(C)OC(=O)N[C@@H]1CC[C@H](C(=O)O)C1` showed a melting point of 112 °C. In turn, `O=C(O)C(O)c1ccc(F)c(F)c1` (centres undefined) had a melting point of 94 °C. Turning to `Cc1nc(-c2ccc(C(=O)O)s2)cs1`, the melting point came to 200 °C. `C=CCCCCCCC(=O)O` showed a melting point of 5 °C. The compound `Cn1nc(CCNC(=O)c2cc([N+](=O)[O-])cc([N+](=O)[O-])c2)c2c(N)ncnc21` returned a melting point of 281 °C. `O=C(O)C1CCCCC1C(=O)OCCO` (centres undefined) had a melting point of 90 °C. `O=C1c2ccccc2C(=O)C1C(=O)C(c1ccccc1)c1ccccc1` showed a melting point of 146 °C. Turning to `Cc1ccc(CNC(=O)c2cc([N+](=O)[O-])cc([N+](=O)[O-])c2)c(C)c1`, the melting point came out at 180 °C. The value for `Cc1nc(-c2cc(CO)no2)cs1` was 120 °C. Compound `COc1ccc(CCNc2ccccc2N)cc1OC` returned a melting point of 78 to 80 °C. Compound `Cc1cc2c(c(=O)n1Cc1ccccc1)C(c1ccccc1)C(C#N)=C(N)O2` (centres undefined) registered a melting point of 275 to 277 °C. The value for `NC(=S)NCCc1ccccc1` was 150 to 152 °C. `CC(C)(C)N=C=O`: the melting point was 85.5 °C. For `O=C(O)c1cccnc1Sc1ccc(Cl)cc1` the value was 220 °C; for `Fc1ccc2nc(Cl)sc2c1`, 91 °C; for `O=C(CCCC(=O)c1ccccc1)c1ccccc1`, 64 to 67 °C. For `COc1ccc2c3c1OC1C(O)CCC4C(C2)N(C)CCC341` (centres undefined) the value was 200 °C; for `S=C=Nc1ccccc1N=C=S`, 56 to 58 °C; for `CSc1sc(C#N)c2c1C(=O)CC(C)(C)C2`, 169 to 171 °C.

Compound `O=CC(Cl)=C(Cl)C(=O)O` returned a melting point of 127 °C.

Compound `Cc1c(Cl)ccc(OC(C)C(=O)Nc2ccccc2)c1Cl` (centres undefined) gave a melting point of 146 °C. In turn, `O=CC(C=O)c1ccncc1` had a melting point of 320 °C.

In turn, `O=C(c1ccccc1)c1cccc2ccccc12` had a melting point of 76 °C.

For the compound `N#Cc1cc(C(F)(F)F)ccc1Cl`, the melting point turned out to be 38.5 °C. For the compound `CCOc1ccc(Br)cc1`, the melting point was 4 °C. In turn, `C[Si](C)(O)c1ccc([Si](C)(C)O)cc1` showed a melting point of 135 °C.
